Measurements reported in patent US6541463B1, “Inhibitors of type 5 and type 3 17β-hydroxysteroid dehydrogenase and methods for their use” (Endorecherche, Inc., priority 1998, dated 2003).
Where two headings read alike, the source gives them in different places.

What was measured:
[1] = molecular target: T1, human type 3 17β-hydroxysteroid dehydrogenase (Homo sapiens, UniProt P37058); experiment: Enzymatic assay for type 3 17β-HSD; type: biochemical
T1 construct: expressed in transfected cells; host or cells: 293 cells, transient transfection; microsomal fraction (100 000×g pellet)
T1 sequence (P37058 1-310): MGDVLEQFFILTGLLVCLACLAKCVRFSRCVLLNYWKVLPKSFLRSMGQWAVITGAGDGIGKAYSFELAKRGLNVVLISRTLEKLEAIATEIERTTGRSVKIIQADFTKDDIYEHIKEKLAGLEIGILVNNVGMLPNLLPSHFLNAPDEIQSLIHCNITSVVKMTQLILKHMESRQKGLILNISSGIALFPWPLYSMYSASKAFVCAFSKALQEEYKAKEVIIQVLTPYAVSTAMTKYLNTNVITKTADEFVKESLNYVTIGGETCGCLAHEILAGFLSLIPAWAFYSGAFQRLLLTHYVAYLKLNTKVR
Source text: Enzymatic assay for types 1, 2, and 3 17β-HSD and types 1 and 3 3α-HSD”. Lower numbers of IC50 are desirable. Blank means that a determination was not done. The % of inhibition at the concentration of 3.10^−6M determined in preliminary screening test is reported in square braquets.
Enzyme sources. 293 cells transiently transfected with expression vectors encoding types 1, 2 and 3 17β-HSD (Luu-The et al., J. Steroid Biochem. Molec. Biol., 55: 581-587, 1995), types 1 and 2 5α-reductase (Luu-The et al., J. Invest. Dermatol., 102: 221-226, 1994) and types 1 and 3 3α-HSD (Dufort et al. Biochem. Biophys. Res. Commun. 228: 474-479, 1996), using the calcium phosphate procedure (Kingston et al., In: Current Protocols in Molecular Biology. Edited by E. M. Ausbel, R. Brent, R. E. Kingston, D. D. Moore, J. G. Seidman, J. A. Smith, K. Struhl. John Wiley & Sons, New York, pp. 9.1.1-9.1.9, 1991; Luu-The et al., J. Invest. Dermatol., 102: 221-226, 1994). For assays using cell subfractions, cells were sonicated in 50 mM sodium phosphate buffer (pH 7.4), containing 20% glycerol and 1 mM EDTA and centrifuged at 10 000×g for 30 min before centrifugation for 100 000×g for 1 h to separate the mitochondrial and microsomal fractions, respectively. The cytosol fractions (100 000×g supernatant) was used to determine type 1 activity while the microsomal fraction (pellet at 100 000×g) was used for measurement of types 2 and 3 17β-HSD activities.
Incubation. The enzymatic reaction was carried out at 37° C. in 1 ml of 50 mM sodium phosphate buffer, pH 7.4, containing 20% glycerol, 1 mM EDTA, and 2 mM cofactors (NADPH or AND^+) for 1 h in the presence of 0.1 μM ^14C-labeled substrate: estrone and 4-dione for types 1 and […] 17β-HSD, respectively, testosterone for type 2 17β-HSD as well as types 1 and 2 5α-reductases, DHT for types 1 and 3 3α-HSD activities, and the indicated concentration of inhibitor.
Extraction of metabolites, migration on TLC and quantification were as described above for the assay of type 5 17β-HSD.

| SMILES | IC50 [1] [nM] | % of Inhibition of the Type 3 17β-HSD Activity ([1]; 3.10^−6 M inhibitor) [%] | % of Inhibition of the Type 3 17β-HSD Activity ([1]; 3.10^−7 M inhibitor) [%] | melting point [°C] | IC50 ([1]; Table 7, read-out: Inhibition of the Type 3 17β-HSD Activity IC50) [nM] |
| --- | --- | --- | --- | --- | --- |
| C[C@]12CC[C@](O)(Cc3ccccc3)C[C@@H]1CC[C@@H]1[C@@H]2CC[C@]2(C)C(=O)CC[C@@H]12 [CS-213, 3β-benzyl-3α-Hydroxy-5α-androstane-17-one] | 31 ± 4 |  |  |  |  |
| COCSc1ccc2c(c1)CC[C@@H]1[C@@H]2CC[C@]2(C)C(=O)CC[C@@H]12 [EM-1064, 3-Methoxymethylthio-Estra-1,3,5(10)-trien-17-one] |  | 92 | 62 | 55 |  |
| CSCCSc1ccc2c(c1)CC[C@@H]1[C@@H]2CC[C@]2(C)C(=O)CC[C@@H]12 [EM-1065, 3-Methylthioethylthio-Estra-1,3,5(10)-trien-17-one] |  | 94 | 63 | 74 |  |
| CSCOc1ccc2c(c1)CC[C@@H]1[C@@H]2CC[C@]2(C)C(=O)CC[C@@H]12 [EM-1066, 3-Methylthiomethyloxy-1,3,5(10)-estratrien-17-one] |  | 93 | 63 |  |  |
| COCOc1ccc2c(c1)CC[C@@H]1[C@@H]2CC[C@]2(C)C(=O)CC[C@@H]12 [EM-1070, 3-Methyloxymethyloxy-1,3,5(10)-estratrien-17-one] |  | 90 | 57 |  |  |
| CCOCCOc1ccc2c(c1)CC[C@@H]1[C@@H]2CC[C@]2(C)C(=O)CC[C@@H]12 [EM-1071, 3-Ethyloxyethyloxy-1,3,5(10)-estratrien-17-one] |  | 91 | 73 |  |  |
| COCCOc1ccc2c(c1)CC[C@@H]1[C@@H]2CC[C@]2(C)C(=O)CC[C@@H]12 [EM-1073, 3-Methyloxyethyloxy-1,3,5(10)-estratrien-17-one] |  | 87 | 51 |  |  |
| CCCCOc1ccc2c(c1)CC[C@@H]1[C@@H]2CC[C@]2(C)C(=O)CC[C@@H]12 [EM-1074, 3-Butyloxy-1,3,5(10)-estratrien-17-one] |  | 92 | 62 |  |  |
| C[C@]12CC[C@](O)(CCc3ccccc3)C[C@@H]1CC[C@@H]1[C@@H]2CC[C@]2(C)C(=O)CC[C@@H]12 [EM-1324-CS, 3α-hydroxy-3β-phenylethyl-5α-androstane-17-one] |  |  |  |  | 31 ± 4 |
| C[C@]12CC[C@@H](O)C[C@@H]1CC[C@@H]1[C@@H]2CC[C@]2(C)C(=O)CC[C@@H]12 [androsterone, reference compound] | 200 |  |  |  |  |
